Data: ChEMBL document CHEMBL1201862, “PubChem BioAssay data set” (2004)
The source made the active and inactive calls.

Experiments:
[1] = target: T1, Neuropeptide Y receptor type 2 (Homo sapiens, UniProt P49146); test: Fluorescence-based cell-based high-throughput dose response assay for agonists of NPY-Y2. [Related pubchem assays: 1703 (Screening assay (CNGC inhibitors).), 1359 (Screening assay (NPY-Y2 potentiators or agonists).), 1304 (Screening assay (NPY-Y1 potentiators or agonists).), 1710 (Screening assay (NPY-Y2 agonists).), 1791 (Summary AID.)]; format: functional
T1 sequence (P49146 whole entry): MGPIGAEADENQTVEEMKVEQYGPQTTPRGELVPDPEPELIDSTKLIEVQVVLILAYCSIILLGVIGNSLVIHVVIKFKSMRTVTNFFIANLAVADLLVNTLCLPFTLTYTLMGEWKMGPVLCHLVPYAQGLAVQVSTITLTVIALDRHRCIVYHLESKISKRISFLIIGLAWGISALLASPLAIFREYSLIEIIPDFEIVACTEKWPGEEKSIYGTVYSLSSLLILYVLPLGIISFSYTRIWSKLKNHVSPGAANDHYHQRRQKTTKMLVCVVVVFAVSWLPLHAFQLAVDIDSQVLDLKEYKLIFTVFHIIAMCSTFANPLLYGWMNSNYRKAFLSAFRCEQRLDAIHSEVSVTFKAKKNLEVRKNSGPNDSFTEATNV

[2] = target: T2, Neuropeptide Y receptor type 1 (Homo sapiens, UniProt P25929); test: Fluorescence-based counterscreen for agonists of NPY-Y2: cell-based high-throughput dose response assay for agonists of NPY-Y1.; format: functional
T2 sequence (P25929 whole entry): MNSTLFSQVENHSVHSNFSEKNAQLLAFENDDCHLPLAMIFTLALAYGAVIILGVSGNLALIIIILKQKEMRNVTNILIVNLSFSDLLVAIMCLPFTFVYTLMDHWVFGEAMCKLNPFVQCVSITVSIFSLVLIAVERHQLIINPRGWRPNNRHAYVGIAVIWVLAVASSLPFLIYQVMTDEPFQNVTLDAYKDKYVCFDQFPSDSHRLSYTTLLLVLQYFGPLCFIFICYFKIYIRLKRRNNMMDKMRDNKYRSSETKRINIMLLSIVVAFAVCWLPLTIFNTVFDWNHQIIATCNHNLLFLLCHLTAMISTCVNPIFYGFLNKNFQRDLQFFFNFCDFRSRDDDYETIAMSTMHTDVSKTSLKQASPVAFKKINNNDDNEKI

[3] = test system: HEK293; test: Fluorescence-based counterscreen for potentiators or agonists of NPY-Y2: cell-based high-throughput dose response assay to identify inhibitors of cyclic nucleotide gated ion channel (CNGC) activity. In this assay, the parental HEK293 cell line transfected with a cyclic-nucleotide gated ion channel (CNGC)-based cAMP sensor is used to measure inhibition of isoproterenol-induced CNGC activity by test compound.; format: functional; settings: Homo sapiens;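 further: stimulus is 1 µM isoproterenol at EC100 plus PDE inhibitor Ro 20-1724 at 25 µM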
[4] = target: T3, Probable nicotinate-nucleotide adenylyltransferase (Staphylococcus aureus (strain N315), UniProt P65502); format: functional, Staphylococcus aureus subsp. aureus N315;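 on IC50 Mean: confirmatory dose-response retesting of NadD inhibitor hits first found in an ultra-high-throughput screen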
T3 sequence (P65502 whole entry): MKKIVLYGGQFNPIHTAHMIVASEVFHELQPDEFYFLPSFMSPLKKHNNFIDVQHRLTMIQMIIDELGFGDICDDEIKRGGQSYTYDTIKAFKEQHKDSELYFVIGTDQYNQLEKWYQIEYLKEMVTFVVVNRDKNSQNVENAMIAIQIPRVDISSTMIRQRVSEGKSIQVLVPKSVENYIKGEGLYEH

[5] = A High Throughput Confirmatory Assay used to Identify Novel Compounds that Inhibit Mycobacterium Tuberculosis in the absence of Glycerol.; format: functional
[6] = M. tuberculosis growth inhibition, HTS (AID 449762); format: functional
[7] = target: T3, Probable nicotinate-nucleotide adenylyltransferase; format: functional, Staphylococcus aureus subsp. aureus N315; settings: read-out: IC50_Mean
[8] = target: T4, Estrogen receptor (Homo sapiens, UniProt P03372); test: blockers of SRC-3 recruitment to ERα – biochemical, ELISA, streptavidin-HRP readout, orthogonal assay, confirmation (AID 1079)
T4 sequence (P03372 whole entry): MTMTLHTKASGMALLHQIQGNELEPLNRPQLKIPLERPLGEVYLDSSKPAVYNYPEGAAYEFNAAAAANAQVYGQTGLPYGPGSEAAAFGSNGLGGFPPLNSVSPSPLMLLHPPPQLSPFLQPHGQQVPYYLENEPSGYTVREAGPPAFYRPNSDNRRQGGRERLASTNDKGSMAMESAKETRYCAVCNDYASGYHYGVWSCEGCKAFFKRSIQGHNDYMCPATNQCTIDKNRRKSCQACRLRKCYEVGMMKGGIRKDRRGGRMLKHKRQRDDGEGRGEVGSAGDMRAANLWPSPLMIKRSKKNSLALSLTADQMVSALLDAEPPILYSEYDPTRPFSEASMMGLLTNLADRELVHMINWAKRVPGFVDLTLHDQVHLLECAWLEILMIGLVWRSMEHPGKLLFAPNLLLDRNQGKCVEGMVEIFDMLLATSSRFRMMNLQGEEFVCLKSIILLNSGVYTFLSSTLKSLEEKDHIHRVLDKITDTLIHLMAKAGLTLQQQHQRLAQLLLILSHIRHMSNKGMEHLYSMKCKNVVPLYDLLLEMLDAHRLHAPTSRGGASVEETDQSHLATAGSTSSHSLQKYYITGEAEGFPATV

[9] = M. tuberculosis H37Rv growth inhibitors, H37Rv strain (AID 1626); format: functional
[10] = cells; format: functional
[11] = test system: Streptococcus; test: Luminescence Microorganism-Based Dose Response Follow up to Identify Compounds Cytotoxic to Streptococcus. [Related pubchem assays: 1677 (Project Summary), 1915, 1914, 1902 (Retest at Dose), 1900 (Counter Screen), 1662 (Primary HTS)]; format: functional, organism-based
[12] = HPDE-C7 pancreatic duct cell viability loss – fluorescence, HTS (AID 430); format: functional, cell-based; settings: Homo sapiens
[13] = viability loss of HPDE-C7K cells – cell-based, fluorescence, HTS, primary screen (AID 431); format: functional; settings: Homo sapiens
[14] = target: Sphingosine 1-phosphate receptor 2 (Homo sapiens, UniProt O95136); test: Dose Response Cell Based Assay for Antagonists of the S1P2 Receptor. [Related pubchem assays: 856, 736 ]; format: functional
Sphingosine 1-phosphate receptor 2, sequence (O95136 whole entry): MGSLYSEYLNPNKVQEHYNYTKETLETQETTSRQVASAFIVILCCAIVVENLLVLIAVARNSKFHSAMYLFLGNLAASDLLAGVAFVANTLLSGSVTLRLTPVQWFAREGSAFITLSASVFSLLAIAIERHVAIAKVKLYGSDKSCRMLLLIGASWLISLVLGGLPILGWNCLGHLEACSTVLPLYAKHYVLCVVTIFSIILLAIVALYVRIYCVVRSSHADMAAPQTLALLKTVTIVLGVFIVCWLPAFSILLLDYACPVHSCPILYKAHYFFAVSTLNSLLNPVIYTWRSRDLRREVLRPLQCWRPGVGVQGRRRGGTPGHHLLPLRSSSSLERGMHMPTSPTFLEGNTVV

[15] = non-specific 3'UTR reporter inhibition in Clone20-Shn3RL – cell-based, Renilla luciferase, cherry-picked, counter-screen for Shn3 inhibitor project, dose response (AID 624133); format: functional
[16] = test system: Streptococcus; test: GAS UMAA2166 growth inhibition – luminescence, BacTiterGlo, counter-screen for streptokinase expression inhibitor project, dose response (AID 1915); format: functional, organism-based;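 further: potency for reduction of bacterial viability or growth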
[17] = test system: INS1; test: INS-1E survival protection against cytokine death – cell-based, luminescence, retest, dose response (AID 449756); format: functional; settings: Rattus norvegicus;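 further: cell death triggered by IL-1 beta plus TNF-alpha plus IFN-gamma mixture; protective hits raise ATP signal compared with cytokine alone wells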
[18] = test system: Streptococcus sp. 'group A'; test: Streptococcus pyogenes SK(-)GAS viability under kanamycin – luminescence, BacTiterGlo, confirmation, counter-screen for streptokinase expression inhibitor project, dose response (AID 1900); format: functional, organism-based
[19] = target: Protein-tyrosine kinase 2-beta (Homo sapiens, UniProt Q14289);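 further: potency of inhibitors of PYK2 kinase phosphorylation of poly-GT substrate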
Protein-tyrosine kinase 2-beta, sequence (Q14289 whole entry): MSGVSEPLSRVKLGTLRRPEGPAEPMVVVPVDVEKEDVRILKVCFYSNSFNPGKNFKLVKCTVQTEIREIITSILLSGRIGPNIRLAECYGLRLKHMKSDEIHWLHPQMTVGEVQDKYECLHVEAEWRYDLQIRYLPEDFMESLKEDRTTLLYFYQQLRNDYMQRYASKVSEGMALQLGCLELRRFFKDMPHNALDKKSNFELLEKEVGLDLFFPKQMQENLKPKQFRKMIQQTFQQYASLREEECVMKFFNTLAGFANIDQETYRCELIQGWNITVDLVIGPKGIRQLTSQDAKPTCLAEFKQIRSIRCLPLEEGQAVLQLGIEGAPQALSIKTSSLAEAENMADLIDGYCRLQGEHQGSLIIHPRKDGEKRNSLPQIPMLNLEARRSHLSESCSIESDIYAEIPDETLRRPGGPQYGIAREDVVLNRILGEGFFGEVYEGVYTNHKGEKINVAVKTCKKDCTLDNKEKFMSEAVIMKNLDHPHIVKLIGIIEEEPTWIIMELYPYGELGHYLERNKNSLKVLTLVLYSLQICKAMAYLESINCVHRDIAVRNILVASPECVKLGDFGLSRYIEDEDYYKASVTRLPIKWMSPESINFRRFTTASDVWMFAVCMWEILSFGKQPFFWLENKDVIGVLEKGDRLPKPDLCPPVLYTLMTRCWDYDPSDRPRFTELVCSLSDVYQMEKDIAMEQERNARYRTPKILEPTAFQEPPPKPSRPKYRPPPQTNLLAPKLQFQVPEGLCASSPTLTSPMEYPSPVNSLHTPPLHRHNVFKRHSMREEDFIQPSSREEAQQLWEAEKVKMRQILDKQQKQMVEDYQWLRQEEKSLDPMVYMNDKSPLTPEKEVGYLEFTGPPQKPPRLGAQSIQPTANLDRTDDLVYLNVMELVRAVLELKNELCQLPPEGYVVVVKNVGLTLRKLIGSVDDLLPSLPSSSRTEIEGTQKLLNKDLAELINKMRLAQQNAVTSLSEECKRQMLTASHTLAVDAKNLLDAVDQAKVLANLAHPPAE

[20] = reduction of Shn3 3'UTR-driven luciferase in osteoblasts – cell-based, Clone20 osteoblasts, firefly luciferase, cherry-picked, dose response (AID 624132); format: functional;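 further: firefly luciferase luminescence from reporter carrying the Shn3 3'UTR in osteoblasts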
[21] = IC50 of Artemis nuclease activity blockers – biochemical, fluorescence intensity, dose response (AID 720701); format: functional;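 further: Artemis endonuclease enzyme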
[22] = target: Peroxisome proliferator-activated receptor gamma (Homo sapiens, UniProt P37231); test: competitive ligand displacement at PPARg – biochemical, TR-FRET, LanthaScreen, PPARg partial agonist project, dose response (AID 504446)
Peroxisome proliferator-activated receptor gamma, sequence (P37231 whole entry): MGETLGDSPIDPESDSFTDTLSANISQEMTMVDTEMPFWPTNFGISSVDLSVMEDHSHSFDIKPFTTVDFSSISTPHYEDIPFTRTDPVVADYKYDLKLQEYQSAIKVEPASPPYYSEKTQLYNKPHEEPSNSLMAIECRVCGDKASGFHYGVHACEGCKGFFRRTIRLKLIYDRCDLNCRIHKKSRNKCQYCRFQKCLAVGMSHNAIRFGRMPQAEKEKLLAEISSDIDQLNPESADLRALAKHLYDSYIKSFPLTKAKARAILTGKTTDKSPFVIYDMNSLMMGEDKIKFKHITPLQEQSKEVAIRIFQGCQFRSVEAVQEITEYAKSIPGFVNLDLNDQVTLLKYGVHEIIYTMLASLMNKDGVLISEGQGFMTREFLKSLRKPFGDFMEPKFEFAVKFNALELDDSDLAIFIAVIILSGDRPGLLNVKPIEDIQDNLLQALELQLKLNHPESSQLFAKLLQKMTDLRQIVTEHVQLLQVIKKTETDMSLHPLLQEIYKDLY

## COc1ccc(-n2nnnc2SCC(=O)NCCc2ccccc2)cc1OC
[1]
  EC50: > 35.4 µM (not active)
[2]
  EC50: > 35.4 µM (not active)
[3]
  EC50: > 35.4 µM (not active)

## CC(=O)c1cccc(NC(=O)C2C3C=CC(C3=C(c3ccccc3)c3ccccc3)C2C(=O)O)c1 (configuration not stated)
[4]
  IC50: 8.12 µM (active)
[5]
  IC50: > 50 µM (active)
[6]
  IC50: > 100 µM (active)
[7]
  IC50: 44.5 µM (active)

## O=C(CCCCCn1c(=S)[nH]c2ccccc2c1=O)N1CCN(c2cccc([N+](=O)[O-])c2)CC1
[8]
  IC50: 0.84 µM (not active)

## N=C1/C(=C/c2ccc(OC(=O)c3ccco3)cc2)C(=O)N=C2SC=CN12
[9]
  IC50: > 100 µM (active)
[10]
  IC50: 10.9 µM (active)

## CN1C(=O)/C(=C\c2cccn2-c2ccc3ccccc3c2)C(=O)NC1=S
[11]
  EC50: > 260 µM (not active)

## CCn1c(=O)c(C(=O)Nc2nc3ccccc3[nH]2)c(O)c2ccccc21
[12]
  EC50: 4.14 µM (active)
[13]
  EC50: 5.58 µM (active)
[14]
  IC50: > 50 µM (not active)
[15]
  AC50: 4.17 µM (active)
[16]
  EC50: 2.99 µM (active)
[17]
  AC50: 3.83 µM (active)
[18]
  EC50: 0.992 µM (active)
[19]
  IC50: > 69.5 µM (not active)
[20]
  AC50: 6.01 µM (active)
[21]
  IC50: 3.81 µM (active)

## O=C(O)CCN1C(=O)/C(=C/c2ccc(C(F)(F)F)cc2C(F)(F)F)SC1=S
[22]
  IC50: 2 µM (active)
